Key:
[1] = molecular target: T1, Amine oxidase [flavin-containing] B (Homo sapiens, UniProt P27338); experiment: Inhibition of human recombinant MAO-B using benzylamine hydrochloride as substrate assessed as H2O2 synthesis at 10 uM after 1 hr by fluorescence assay; conditions: read-out: INH
T1 sequence (P27338 whole entry): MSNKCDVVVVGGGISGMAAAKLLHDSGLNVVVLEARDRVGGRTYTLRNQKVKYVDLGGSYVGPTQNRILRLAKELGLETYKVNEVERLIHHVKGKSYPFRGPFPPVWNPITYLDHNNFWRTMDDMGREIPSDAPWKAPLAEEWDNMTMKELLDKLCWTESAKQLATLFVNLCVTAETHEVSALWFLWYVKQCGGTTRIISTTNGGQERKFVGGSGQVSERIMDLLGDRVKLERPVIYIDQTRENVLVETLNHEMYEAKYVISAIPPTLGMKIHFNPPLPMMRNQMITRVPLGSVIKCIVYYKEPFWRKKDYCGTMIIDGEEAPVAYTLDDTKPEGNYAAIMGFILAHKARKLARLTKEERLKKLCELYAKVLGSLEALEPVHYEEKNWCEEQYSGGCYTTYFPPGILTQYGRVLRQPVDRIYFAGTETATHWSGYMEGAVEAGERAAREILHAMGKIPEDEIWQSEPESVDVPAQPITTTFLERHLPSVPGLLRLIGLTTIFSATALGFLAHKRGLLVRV

[2] = molecular target: T1, Amine oxidase [flavin-containing] B; experiment: Inhibition of human recombinant MAO-B using benzylamine hydrochloride as substrate assessed as H2O2 synthesis after 1 hr by fluorescence assay

Row | inhibition at 10 µM [1] [%] | IC50 [2] [nM] | Structure (SMILES)
1 | 69.8 | 890 | Clc1ccc(-c2nc3ccc(N4CCCCC4)nc3o2)cc1
2 | 84.2 | 358 | Clc1ccc(-c2nc3ccc(N4CCCCC4)nc3s2)cc1
3 | 93.4 | 270 | Fc1ccc(-c2nc3ccc(N4CCCCC4)nc3o2)cc1
4 | 79.1 | 2540 | c1ccc(-c2nc3ccc(NC4CCCCC4)nc3o2)cc1
5 | 4.8 | – | c1ccc(CNc2ccc3nc(-c4ccccc4)oc3n2)cc1
6 | 57.9 | – | c1ccc(-c2nc3ccc(N4CCCCCC4)nc3o2)cc1
7 | 94.9 | 665 | Fc1ccccc1-c1nc2ccc(N3CCCCC3)nc2o1
8 | 19 | – | CNc1ccc2nc(-c3ccccc3)oc2n1
9 | 95.5 | 356 | c1ccc(-c2nc3ccc(N4CCCCC4)nc3s2)cc1
10 | 91.7 | 335 | Clc1cccc(-c2nc3ccc(N4CCCCC4)nc3o2)c1
11 | 95.1 | 171 | Clc1ccccc1-c1nc2ccc(N3CCCCC3)nc2s1
12 | 92.7 | 26.5 | Fc1ccc(-c2nc3ccc(N4CCCCC4)nc3s2)cc1
13 | 96.3 | 267 | Clc1ccccc1-c1nc2ccc(N3CCCCC3)nc2o1
14 | 89.7 | – | Fc1cccc(-c2nc3ccc(N4CCCCC4)nc3o2)c1
15 | 3.7 | – | CN(Cc1ccccc1)c1ccc2nc(-c3ccccc3)oc2n1
16 | 86.8 | 1370 | c1ccc(-c2nc3ccc(N4CCCCC4)nc3o2)cc1

Reference: ChEMBL document CHEMBL2417454, “Oxazolopyridines and thiazolopyridines as monoamine oxidase B inhibitors for the treatment of Parkinson's disease” (Bioorg Med Chem, 2013)
